Data reported in patent US20200190062A1, “HETEROCYCLIC COMPOUND AND PHARMACEUTICAL COMPOSITION COMPRISING SAME” (BEYONDBIO INC., priority 2015, published 2020).
Counter-ions that a name gives are not always drawn.

Legend:
Test in all cases: Inhibition of cancer cell proliferation (MTT)
Format in all cases: cell-based, human
HCT116 = tested on: HCT116
Protocol: (§1) A test was conducted to confirm whether the compounds obtained in the above Examples can inhibit proliferation of human colon carcinoma cell line HCT116, glioblastoma cell lines U-87MG and T98G, neuroblastoma cell lines SH-SYSY and SK-N-SH, and lung cancer cell lines A549 and NCI-H23.
(§2) HCT116, U-87MG, SH-SYSY, SK-N-SH and A549 cells were culured in DMEM medium containing 10% FBS. T98G cells were cultured in MEM medium containing 10% FBS and NCI-H23 cells were cultured in […] medium containing 10% FBS. In order to analyze an inhibition of proliferation, HCT116 cells were dispensed in 2000 cells/well into 96 well plate, and SH-SYSY, SK-N-SH, U-87MG, T98G, A549, and NCI-H23 cells were dispensed in 3000 cells/well into 96 well plate. And then, the cells were cultured at 5% CO2 and 37° C. for 16 hrs to allow the cells to attach to the wells. The compounds of the above Examples were added to each well at a concentration of 0.004, 0.013, 0.04, 0.12, 0.37, 1.1, 3.3, and 10 uM, and the culture volume was adjusted to 100 ul. A control group was treated with dimethylsulfoxide (DMSO) at the same concentration, 0.08%, as used to treat the test compounds. Afterwards, cells were cultured at 5% CO2 and 37° C. for 72 hrs. And then, 10 ul of the solution of MTT (3-(4,5-dimethylthiazol-2-yl)-2,5-diphenyltetrazolium bromide) dissolved in PBS at 5 mg/ml was added to each well to identify viable cells and the cells were cultured for further 2 hrs. The culture solution was removed, 100 ul of DMSO was added to dissolve the formed formazan and then an absorbance was measured at 535 nm. Based on the absorbance of the control cells not treated with the compounds, the amounts of the viable cells according to the concentration of the compounds were calculated. GI50 (growth inhibition 50) value which is the concentration of the compound to inhibit cancer cell proliferation by 50% was calculated using Graphpad Prism 5.0 program.

T98G = tested on: T98G
Protocol: as §1, §2

A549 = tested on: A549
Protocol: as §1, §2

U-87MG = tested on: U-87MG
Protocol: as §1, §2

NCI-H23 = tested on: NCI-H23
Protocol: as §1, §2

SMILES | GI50 (HCT116; 72 hrs) [nM] | GI50 (T98G; 72 hrs) [nM] | GI50 (A549; 72 hrs) [nM] | GI50 (U-87MG; 72 hrs) [nM] | GI50 (NCI-H23; 72 hrs) [nM] | GI50 (HCT116; Homo sapiens, HCT-116, 72 h) [nM] | GI50 (T98G; Homo sapiens, T98G, 72 h) [nM] | GI50 (U-87MG; Homo sapiens, U-87 MG, 72 h) [nM] | GI50 (NCI-H23; Homo sapiens, NCI-H23, 72 h) [nM] | GI50 (A549; Homo sapiens, A549, 72 h) [nM]
CCN1CCCC(c2cc(-c3nc(-c4ccnc(N)c4F)ccc3O)nc(N)n2)C1 (stereo not shown) [Example 39, 2′-amino-6-(2-amino-6-(1-ethylpiperidin-3-yl)pyrimidin-4-yl)-3′-fluoro-[2,4′-bipyridin]-5-ol] | 170 | 690 | 400 | 390 | 1790 | – | – | – | – | –
CCCN1CCCC(c2cc(-c3nc(-c4ccnc(N)c4F)ccc3O)nc(N)n2)C1 (stereo not shown) [Example 40, 2′-amino-6-(2-amino-6-(1-propylpiperidin-3-yl)pyrimidin-4-yl)-3′-fluoro-[2,4′-bipyridin]-5-ol] | – | – | 10 | – | – | 10 | 50 | 20 | 30 | –
CC(C)N1CCCC(c2cc(-c3nc(-c4ccnc(N)c4F)ccc3O)nc(N)n2)C1 (stereo not shown) [Example 41, 2′-amino-6-(2-amino-6-(1-isopropylpiperidin-3-yl)pyrimidin-4-yl)-3′-fluoro-[2,4′-bipyridin]-5-ol] | – | – | – | – | – | 20 | 110 | 40 | 70 | 40
Cc1c(-c2nc(-c3ccnc(N)c3F)ccc2O)nc(N)nc1C1CCN(C)CC1 [Example 42, 2′-amino-6-(2-amino-5-methyl-6-(1-methylpiperidin-4-yl)pyrimidin-4-yl)-3′-fluoro-[2,4′-bipyridin]-5-ol] | 180 | 400 | 380 | 270 | 890 | – | – | – | – | –
CCN1CCC(c2nc(N)nc(-c3nc(-c4ccnc(N)c4F)ccc3O)c2C)CC1 [Example 43, 2′-amino-6-(2-amino-6-(1-ethylpiperidin-4-yl)-5-methylpyrimidin-4-yl)-3′-fluoro-[2,4′-bipyridin]-5-ol] | – | – | – | – | – | 230 | 460 | 280 | 960 | 460
CCCN1CCC(c2nc(N)nc(-c3nc(-c4ccnc(N)c4F)ccc3O)c2C)CC1 [Example 44, 2′-amino-6-(2-amino-5-methyl-6-(1-propylpiperidin-4-yl)pyrimidin-4-yl)-3′-fluoro-[2,4′-bipyridin]-5-ol] | – | – | – | – | 330 | 60 | 130 | 90 | – | 140
Cc1c(-c2nc(-c3ccnc(N)c3F)ccc2O)nc(N)nc1C1CCN(C(C)C)CC1 [Example 45, 2′-amino-6-(2-amino-6-(1-isopropylpiperidin-4-yl)-5-methylpyrimidin-4-yl)-3′-fluoro-[2,4′-bipyridin]-5-ol] | – | – | – | – | – | 90 | 160 | 100 | 400 | 150
Cc1c(-c2nc(-c3ccnc(N)c3F)ccc2O)nc(N)nc1C1CCCN(C)C1 (stereo not shown) [Example 46] | – | – | – | – | – | 140 | 250 | 150 | 410 | 210
CCCN1CCCC(c2nc(N)nc(-c3nc(-c4ccnc(N)c4F)ccc3O)c2C)C1 (stereo not shown) [Example 47, 2′-amino-6-(2-amino-5-methyl-6-(1-propylpiperidin-3-yl)pyrimidin-4-yl)-3′-fluoro-[2,4′-bipyridin]-5-ol] | – | – | – | – | – | 810 | 1410 | 1090 | 2230 | 1440
CCc1c(-c2nc(-c3ccnc(N)c3F)ccc2O)nc(N)nc1C1CCN(C(C)C)CC1 [Example 49, 2′-amino-6-(2-amino-5-ethyl-6-(1-isopropylpiperidin-4-yl)pyrimidin-4-yl)-3′-fluoro-[2,4′-bipyridin]-5-ol] | – | – | – | – | – | 20 | 50 | 30 | 70 | 50
CCCc1c(-c2nc(-c3ccnc(N)c3F)ccc2O)nc(N)nc1C1CCN(C(C)C)CC1 [Example 50, 2′-amino-6-(2-amino-6-(1-isopropylpiperidin-4-yl)-5-propylpyrimidin-4-yl)-3′-fluoro-[2,4′-bipyridin]-5-ol] | – | – | 150 | – | – | 40 | 130 | 70 | 160 | –
Cc1cnc(N)nc1-c1nc(-c2ccnc(N)c2F)ccc1O [Example 55, 2′-amino-6-(2-amino-5-methylpyrimidin-4-yl)-3′-fluoro-[2,4′-bipyridin]-5-ol] | – | 130 | 160 | – | 180 | 50 | – | 110 | – | –
CCc1cnc(N)nc1-c1nc(-c2ccnc(N)c2F)ccc1O [Example 56, 2′-amino-6-(2-amino-5-ethylpyrimidin-4-yl)-3′-fluoro-[2,4′-bipyridin]-5-ol] | 30 | 130 | – | – | 90 | – | – | 60 | – | 80
CCCc1cnc(N)nc1-c1nc(-c2ccnc(N)c2F)ccc1O [Example 57, 2′-amino-6-(2-amino-5-propylpyrimidin-4-yl)-3′-fluoro-[2,4′-bipyridin]-5-ol] | – | 60 | 40 | – | – | 20 | – | 20 | 40 | –
CC(C)c1cnc(N)nc1-c1nc(-c2ccnc(N)c2F)ccc1O [Example 58] | – | – | – | – | – | 30 | 40 | 60 | 60 | 70
CNc1nc(-c2nc(-c3ccnc(N)c3F)ccc2O)cc(C2CCN(C)CC2)n1 [Example 59, 2′-amino-3′-fluoro-6-(2-(methylamino)-6-(1-methylpiperidin-4-yl)pyrimidin-4-yl)-[2,4′-bipyridin]-5-ol] | – | – | – | – | – | 40 | 110 | 70 | 130 | 70
Cc1nc(N)nc(-c2nc(-c3ccnc(N)c3F)ccc2O)c1C [Example 60, 2′-amino-6-(2-amino-5,6-dimethylpyrimidin-4-yl)-3′-fluoro-[2,4′-bipyridin]-5-ol] | – | – | – | – | – | 50 | 260 | 220 | 220 | 120
CN1CCC(c2cc(-c3nc(-c4ccnc(N)c4F)ccc3O)nc(N)n2)CC1 [Example 77, 2′-amino-6-(2-amino-(6-(1-methylpiperidin-4-yl)pyrimidin-4-yl)-3′-fluoro-[2,4′-bipyridin]-5-ol 4hydrochloride] | 3 | 30 | 10 | 10 | 30 | – | – | – | – | –
Nc1nc(-c2nc(-c3ccnc(N)c3F)ccc2O)cc(C2CCNCC2)n1 [Example 83, 2′-amino-6-(2-amino-6-(piperidin-4-yl)pyrimidin-4-yl)-3′-fluoro-[2,4′-bipyridin]-5-ol 4hydrochloride] | 30 | 150 | 120 | 90 | 1180 | – | – | – | – | –
Nc1nc(-c2nc(-c3ccnc(N)c3F)ccc2O)cc(C2CCNCC2)n1 [Example 84, 2′-amino-6-(2-amino-6-(piperidin-4-yl)pyrimidin-4-yl)-3′-fluoro-[2,4′-bipyridin]-5-ol acetate] | 60 | 290 | 220 | 180 | 2030 | – | – | – | – | –
